Results: US10604514B2, “6-(5-membered heteroaryl)isoquinolin-3-yl carboxamides and preparation and use thereof” (Samumed, LLC, priority 2017, dated 2020)
Like-named read-outs stand apart in the source and are kept apart here.

Tests used:
[1] = test system: Wnt activity (Sp5-Luc reporter in SW480 colon carcinoma cells); test: Wnt activity screening assay (Sp5-Luc reporter gene assay); assay type: cell-based, human
How it was run: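 SW480 cells stably carrying an Sp5 promoter (eight TCF/LEF sites)-firefly luciferase reporter were plated in DMEM with 1% FBS and treated with a 10-point, 1:3 dilution series from 10 μM (0.1% DMSO) for 36 to 48 h at 37° C. Luminescence was normalized to DMSO controls, and EC50 came from four-parameter nonlinear regression.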

IL-6 = IL-6 inhibition in LPS-stimulated human peripheral blood mononuclear cells (HTRF); assay type: cell-based; details: for EC50: IL-6, LPS-stimulated huPBMCs, HTRF; for inhibition at 10 µM: read-out: percent value in parentheses below EC50 >10
How it was run: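 Fresh human PBMCs (5000 cells/well, 1% FBS RPMI) preincubated with compound (10-point 1:3 series from 10 μM, 0.25% DMSO) 2 h at 37 °C, then stimulated with 50 ng/mL E. coli LPS for 22 h. IL-6 by HTRF 665/620 ratio; DMSO-normalized, EC50 from 4-parameter fit.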

DYRK1A kinase = DYRK1A kinase (Homo sapiens (Human), UniProt Q13627); test: DYRK1A kinase assay (Ser/Thr 18 peptide Z-lyte, FRET)
[2] = test system: LL29 cells (primary human fibroblasts derived from IPF patients), α-smooth muscle actin; test: Inhibition of fibrotic process: αSMA in TGF-β1-treated primary human fibroblasts from IPF patients (LL29 cells); assay type: cell-based; details: for EC50: % αSMA-positive LL29 cells, TGF-β1 20 ng/mL, 4 days; for inhibition at 10 µM: read-out: percent inhibition at 10 μM
How it was run: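 IPF-patient lung fibroblasts (LL29) were stimulated with TGF-β1 (20 ng/mL) in 1% FBS medium with compound (11-point 1:2 series, 0.1% DMSO) for 4 days at 37 °C. Fixed cells were immunostained for αSMA and imaged, excluding SYTOX-positive dead cells. The % αSMA-positive cells was normalized to TGF-β1/DMSO control wells.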

[3] = test system: SW480 colon carcinoma cells; test: Cell viability assay (CellTiter-Glo) in SW480 cells; assay type: cell-based, human;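 note: SW480 cells stably carrying an Sp5-luciferase TCF/LEF reporter, luminescent ATP signal as viability measure, DMSO-treated cells as control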
[4] = test system: Tau phosphorylation at Ser396 (pSer396), SH-SY5Y cells; test: Tau phosphorylation at Ser396 (pSer396) in SH-SY5Y cells, ELISA/western blot; assay type: cell-based, human;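 note: cell lysates probed for reduced Tau pSer396 via ELISA (colorimetric) or western blot (chemiluminescence), both with one shared pSer396 antibody, EC50 for lowering phosphorylation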
Procedure: Two days before treatment, cells were seeded onto 96 well plates at 5×10^4 cells/well.
Wells were visually checked for cell death or change in morphology and supernatants were tested for cytotoxicity by measurement of lactate dehydrogenase release (LDH, CytoToxOne kit, Promega) if necessary.
Cells were lysed with RIPA buffer complemented with phosphatase and protease inhibitors then lysates were spun down at 12,000 g for 10 min to remove any cellular debris. Lysates are then either directly tested for pSer396 by ELISA (Life Technology, Kit KHB7031) or loaded on NuPage Bis-Tris gels for western blot analysis. Colorimetric detection of ELISA signal is performed by Cytation3 plate reader (Biotek) and the chemiluminescence signal for HRP-linked antibodies used in western blotting is detected using a Carestream Image Station. The same pSer396 antibody is used for detection of pTau in both assays.

GSK3β kinase = GSK3β kinase (Homo sapiens (Human), UniProt P49841); test: GSK3β kinase assay (Ser/Thr 09 peptide Z-lyte, FRET); assay type: biochemical; details: method text calls the value IC50;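 note: Coumarin/fluorescein emission ratio converted to percent phosphorylation against unphosphorylated (0%) and phosphorylated (100%) controls, 1 h compound incubation at room temperature, 11-point threefold dilutions from 10 µM, run in duplicate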
GSK3β kinase, sequence (P49841 whole entry): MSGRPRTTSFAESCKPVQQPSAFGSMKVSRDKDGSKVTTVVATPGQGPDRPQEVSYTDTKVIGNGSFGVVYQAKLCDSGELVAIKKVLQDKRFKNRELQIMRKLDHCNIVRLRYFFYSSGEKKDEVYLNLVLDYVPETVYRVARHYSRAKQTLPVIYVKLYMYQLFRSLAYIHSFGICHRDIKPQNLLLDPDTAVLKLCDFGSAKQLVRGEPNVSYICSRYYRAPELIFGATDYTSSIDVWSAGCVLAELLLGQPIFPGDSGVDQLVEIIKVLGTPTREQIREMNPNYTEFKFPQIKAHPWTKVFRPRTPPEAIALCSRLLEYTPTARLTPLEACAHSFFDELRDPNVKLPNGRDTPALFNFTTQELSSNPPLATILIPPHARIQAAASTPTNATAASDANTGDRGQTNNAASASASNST
Procedure: Representative compounds were screened using the assay procedure for GSK30 kinase activity as described below.
Each compound is dissolved in DMSO as a 10 mM stock and used to prepare compound source plates. Serial dilution (1:3, 11-point dose-response curves from 10 M to 0.0003 μM) and compound transfer was performed using the ECHO 550 (Labcyte, Sunnyvale, Calif.) into 1536-well black-walled round bottom plates (Corning).
This is a non-radioactive assay using fluorescence resonance energy transfer (FRET) between coumarin and fluorescein to detect kinase activity which is represented as ratio of coumarin emission/fluorescein emission.
The mixture is allowed to incubate with the representative compounds for one hour at room temperature. All reactions were performed in duplicate. Unphosphorylated (“0% Control”) and phosphorylated (“100% control”) forms of Ser/Thr 18 serve as control reactions.
After incubation, diluted Development Buffer is added to the reaction and allowed to further incubate for one hour at room temperature.
The percent phosphorylation is then calculated using the following formula: [1−((Em ratio×F100%)−C100%)/((C0%−C100%)+(Em ratio×(F100%−F0%)))].
Dose-response curves are generated and inhibitory concentration (IC50) values are calculated using non-linear regression curve fit in the Dotmatics' Studies Software (Bishops Stortford, UK).

[5] = Homo sapiens; Sp5-Luc reporter, SW480 cells, 36 to 48 hours
[6] = Homo sapiens, 96 h; cell viability, SW480 cells, four days, CellTiter-Glo
[7] = Homo sapiens, SH-SY5Y cells, overnight (16-18 h), read-out: pSer396 Tau EC50
[8] = DYRK1A kinase, method text calls the value IC50
[9] = Homo sapiens, SW480; read-out: percent inhibition at 10 μM
[10] = Homo sapiens, SW480, read-out: percent inhibition at 10 μM
[11] = Homo sapiens, SH-SY5Y, read-out: pSer396 Tau EC50 (μM)

Molecule	EC50 [1, 5]	EC50 (IL-6; Homo sapiens, PBMC)	EC50 (DYRK1A kinase)	EC50 ([2]; Homo sapiens, Fibroblast, 96 h)	EC50 [3, 6]	EC50 [4, 7]	EC50 (GSK3β kinase)	EC50 (DYRK1A kinase; [8])	inhibition at 10 µM [1, 9]	inhibition at 10 µM (IL-6; Homo sapiens, PBMC)	inhibition at 10 µM [3, 9]	inhibition at 10 µM ([2]; Homo sapiens, Fibroblast)	inhibition at 10 µM [3, 10]	EC50 [4, 11]	inhibition at 10 µM [1, 10]	EC50 ([1]; Sp5-Luc reporter, SW480 cells, 36 to 48 hours)	EC50 (IL-6)	EC50 [2]	EC50 ([3]; cell viability, SW480 cells, four days, CellTiter-Glo)	EC50 ([4]; SH-SY5Y cells, overnight (16-18 h), read-out: pSer396 Tau EC50)
[2H]c1c([2H])c(C(=O)Nc2cc3cc(-c4cnc(C)n4C)ccc3cn2)c([2H])c([2H])c1OC [Compound 166, N-(6-(1,2-Dimethyl-1H-imidazol-5-yl)isoquinolin-3-yl)-4-methoxybenzamide-2,3,5,6-d4]	0.525 µM	3.55 µM	0.009 µM	1.88 µM	0.671 µM	> 10 µM	6.38 µM													
Cn1cc(-c2ccc3cnc(NC(=O)C4CCN(C(C)(C)C)CC4)cc3c2)cn1 [Compound 167, 1-(tert-Butyl)-N-(6-(1-methyl-1H-pyrazol-4-yl)isoquinolin-3-yl)piperidine-4-carboxamide]	2.35 µM	1.25 µM		0.293 µM	3.34 µM	0.288 µM	0.096 µM	0.007 µM												
Cc1nnc(-c2ccc3cnc(NC(=O)N4CCC(NCC(F)F)CC4)cc3c2)s1 [Compound 168, 4-((2,2-Difluoroethyl)amino)-N-(6-(5-methyl-1,3,4-thiadiazol-2-yl)isoquinolin-3-yl)piperidine-1-carboxamide]	> 10 µM	> 10 µM		1.29 µM	> 10 µM	0.578 µM	0.02 µM	0.004 µM	42.2%	14.2%	19.4%									
CCCCN1CCC(C(=O)Nc2cc3cc(-c4cnn(C)c4)ccc3cn2)CC1 [Compound 169, 1-Butyl-N-(6-(1-methyl-1H-pyrazol-4-yl)isoquinolin-3-yl)piperidine-4-carboxamide]	2.54 µM	1.02 µM		0.148 µM	1.13 µM	0.154 µM	0.047 µM	0.003 µM												
CC(C)C[N+]1(CC(C)C)CCC(C(=O)Nc2cc3cc(-c4cnn(C)c4)ccc3cn2)CC1 [Compound 170, 1,1-Diisobutyl-4-((6-(1-methyl-1H-pyrazol-4-yl)isoquinolin-3-yl)carbamoyl)piperidin-1-ium]	> 10 µM	> 10 µM	0.015 µM	7.09 µM	> 10 µM	9.91 µM	0.052 µM		23.1%	4.4%	27%									
Cc1nnc(-c2ccc3cnc(NC(=O)N4C[C@H]5C[C@@H]4CN5C)cc3c2)s1 [Compound 176, (1R,4R)-5-Methyl-N-(6-(5-methyl-1,3,4-thiadiazol-2-yl)isoquinolin-3-yl)-2,5-diazabicyclo[2.2.1]heptane-2-carboxamide]	1.03 µM	> 10 µM		> 10 µM	> 10 µM	4 µM	0.207 µM	0.023 µM		8.4%	8.3%	8.4%								
CN[C@H]1CCN(C(=O)Nc2cc3cc(-c4nnc(C)s4)ccc3cn2)C[C@@H]1F [Compound 179, (3S,4S)-3-Fluoro-N-(6-(5-methyl-1,3,4-thiadiazol-2-yl)isoquinolin-3-yl)-4-(methylamino)piperidine-1-carboxamide]	2.78 µM	> 10 µM		> 10 µM	5.06 µM	1.3 µM	0.026 µM	0.018 µM		10.1%		10.1%								
Cc1nnc(-c2ccc3cnc(NC(=O)N4[C@@H]5CC[C@H]4C[C@@H](NCC(F)F)C5)cc3c2)s1 [Compound 188, (1R,5S)-cis-3-((2,2-difluoroethyl)amino)-N-(6-(5-methyl-1,3,4-thiadiazol-2-yl)isoquinolin-3-yl)-8-azabicyclo [3.2.1]octane-8-carboxamide]	8.21 µM	5.77 µM		2.48 µM	> 10 µM		0.154 µM	0.003 µM					28%	4.8 µM						
Cc1nnc(-c2ccc3cnc(NC(=O)N4[C@@H]5CC[C@H]4C[C@@H](N)C5)cc3c2)s1 [Compound 193, (1R,5S)-3-endo-Amino-N-(6-(5-methyl-1,3,4-thiadiazol-2-yl)isoquinolin-3-yl)-8-azabicyclo[3.2.1]octane-8-carboxamide]	> 10 µM	> 10 µM		> 10 µM	> 10 µM		0.33 µM	0.033 µM		6.5%		6.5%	12.8%	> 10 µM	8.4%					
Cc1nnc(-c2ccc3cnc(NC(=O)[C@H]4CC[C@H](N5CCN(C)CC5)CC4)cc3c2)s1 [Compound 194, trans-N-(6-(5-methyl-1,3,4-thiadiazol-2-yl)isoquinolin-3-yl)-4-(4-methylpiperazin-1-yl)cyclohexane-1-carboxamide]	0.681 µM	3.09 µM		0.328 µM	1.26 µM	0.218 µM	0.012 µM	0.003 µM												
Cn1cc(-c2ccc3cnc(NC(=O)[C@H]4CC[C@H](NCCF)CC4)cc3c2)cn1 [Compound 197, trans-4-((2-Fluoroethyl)amino)-N-(6-(1-methyl-1H-pyrazol-4-yl)isoquinolin-3-yl)cyclohexane-1-carboxamide]	1.42 µM	0.994 µM		0.233 µM	1.27 µM	0.57 µM	0.087 µM	0.003 µM												
COCCN[C@H]1CC[C@H](C(=O)Nc2cc3cc(-c4nnc(C)s4)ccc3cn2)CC1 [Compound 199, trans-4-((2-Methoxyethyl)amino)-N-(6-(5-methyl-1,3,4-thiadiazol-2-yl)isoquinolin-3-yl)cyclohexane-1-carboxamide]	0.982 µM	3.86 µM		3.2 µM	1.65 µM	0.234 µM	0.017 µM	0.004 µM												
Cc1nnc(-c2ccc3cnc(NC(=O)[C@H]4CC[C@H](NCCF)CC4)cc3c2)s1 [Compound 200, trans-4-((2-Fluoroethyl)amino)-N-(6-(5-methyl-1,3,4-thiadiazol-2-yl)isoquinolin-3-yl)cyclohexane-1-carboxamide]	0.841 µM	3.98 µM		0.533 µM	1.39 µM	0.095 µM	0.014 µM	0.006 µM												
Cn1cc(-c2ccc3cnc(NC(=O)c4cc[n+]([O-])c(N5CC[N+](C)([O-])CC5)c4)cc3c2)nn1 [Compound 225, 1-methyl-4-(4-((6-(1-methyl-1H-1,2,3-triazol-4-yl)isoquinolin-3-yl)carbamoyl)-1-oxidopyridin-2-yl)piperazine 1-oxide]	3.85 µM	> 10 µM	0.002 µM	> 10 µM	> 10 µM	> 10 µM	0.407 µM			6.9%	28.7%	24.8%								
[2H]C([2H])([2H])[N+]1([O-])CCN(c2cc(C(=O)Nc3cc4cc(-c5cn(C)nn5)ccc4cn3)ccn2)CC1 [Compound 226, 1-(Methyl-d3)-4-(4-((6-(1-methyl-1H-1,2,3-triazol-4-yl)isoquinolin-3-yl)carbamoyl)pyridin-2-yl)piperazine 1-oxide]	> 10 µM	> 10 µM	0.004 µM	> 10 µM	> 10 µM	> 10 µM	1.19 µM		31.6%	4.5%	46.9%	33.2%								
trans-N-(6-(2-methyloxazol-5-yl)isoquinolin-3-yl)-4-((propan-2-yl-1,1,1,3,3,3-d6)amino)cyclohexane-1-carboxamide [Compound 141]							0.05 µM	0.009 µM								2.78 µM	0.388 µM	0.321 µM	1.57 µM	0.594 µM
